Several values for one entry are separate records, joined by “and”; a condition that tells them apart may be missing. Identical values can stand only once. Square brackets hold non-standard residues; d marks the D form. Peptide text beside a SMILES is read from it.
What was measured:
Hela cells = test: HSV-1 cytopathogenic effect, CCK-8 viability (rebuttal Fig. R1); assay type: cell-based, human; conditions: 10 μM
Experimental: We tested the effect of XQ2 on human cervical cancer
HSV-1 infection given that epithelial cells are generally weak responders of cGAS-
cells and THP1 cells were pretreated for 3 h with DMSO or XQ2 (10 μM), followed by
the indicated titer of HSV-1 infection. The cell v iability was measured by CCK-8 assay.

[1] = molecular target: T1, recombinant human cGAS enzyme (hcGAS-ΔN, residues 147–522) (Homo sapiens, UniProt Q8N884); test: RNA-based fluorescent biosensor assay of cGAS activity (2',3'-cGAMP formation), in vitro screening; assay type: biochemical
T1 construct: N-terminally truncated human cGAS (hcGAS-ΔN, residues 147–522); 6xHis-SUMO (N, cleaved yes); made in house; host or cells: Escherichia coli BL21 (DE3)
Procedure, shortened: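 In 40 mM Tris-HCl pH 7.5, 100 mM NaCl, 10 mM MgCl2, ISD (0.5 μM) started the reaction with hcGAS-ΔN (1.5 μM), ATP (1 mM) and GTP (1 mM). Incubation was 2 h at 37 °C, with compounds screened at 20 μM. 2',3'-cGAMP formed was quantified with an RNA-based fluorescent biosensor.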

T1 sequence (Q8N884 147-522, stated change not applied): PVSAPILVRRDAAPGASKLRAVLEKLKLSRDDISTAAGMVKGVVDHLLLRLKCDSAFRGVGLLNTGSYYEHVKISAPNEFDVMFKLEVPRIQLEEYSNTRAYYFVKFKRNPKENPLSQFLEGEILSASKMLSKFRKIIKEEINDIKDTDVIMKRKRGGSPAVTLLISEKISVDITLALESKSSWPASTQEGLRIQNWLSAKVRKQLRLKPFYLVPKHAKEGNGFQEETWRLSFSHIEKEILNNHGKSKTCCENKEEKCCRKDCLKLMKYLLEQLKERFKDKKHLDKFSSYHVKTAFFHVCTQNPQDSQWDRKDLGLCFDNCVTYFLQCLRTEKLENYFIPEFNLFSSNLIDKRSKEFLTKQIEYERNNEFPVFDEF

CC(C)C[C@@H]1NC(=O)[C@H](CCCNC(=N)N)NC(=O)[C@H](C(C)C)NC(=O)[C@@H]2CCCN2C(=O)[C@@H](Cc2ccccc2)NC(=O)[C@H](CC(C)C)NC(=O)[C@H](CCCNC(=N)N)NC(=O)[C@H](C(C)C)NC(=O)[C@H](C)NC(=O)[C@@H](Cc2ccccc2)NC1=O [XQ2, Cyclo (LfAVRLfPVR)] (cyclo(L[dF]AVRL[dF]PVR))
HSV-1 cytopathogenic effect in Hela cells (Hela cells): further enhanced the CPE
Remaining activity (%), Fig. 1a source data ([1]; 20 μM, replicate values): 59.4781% and 59.6712%
remaining activity at 20 µM ([1]; 20 μM, replicate values, read-out: Remaining activity (%), Fig. 1a source data): 59.5%
Inhibition % ([1]; peptides screened at 20 μM, Supplementary Table 1 / Fig. S5b, 20 µM): ≥ 40%
inhibition at 20 µM ([1]; peptides screened at 20 μM, Supplementary Table 1 / Fig. S5b, read-out: Inhibition %): 40%

From article PMC10545747, “Development of cyclopeptide inhibitors of cGAS targeting protein-DNA interaction and phase separation” (Nature Communications, 2023)
